Measured values published in patent US8722910B2, “Diyne compositions” (Evolva AG, priority 2009, dated 2014).
Values after ≈ are worked out from the molar mass of the structure shown. Like-named read-outs stand apart in the source and are kept apart here.

Assays:
C. albicans = assay: Susceptibility of clinical isolates (MIC, broth dilution); format: cell-based
Description: (§1) The efficacy of compound IV″ was investigated on 563 clinical isolates of 33 human fungal pathogens. […] For species with n≧10, the MIC90 (MIC, minimal inhibitory concentration) is given as ng/ml. For species with n≦10, the MIC range is given as ng/ml. 24 h and 48 h reads are indicated (Table 1).
(§2) The in vitro efficacy of antifungal compounds is determined in susceptibility assays, which are indicative for the spectrum and potency of a compound. Susceptibilities are reported as minimal inhibitory concentrations (MIC, as ng/ml or μg/ml) required to inhibit growth to a defined degree compared to the drug free control. The MIC90 defines the MIC required to inhibit growth for ≧90% of the strains of a population tested.
(§3) The MIC90 was calculated for the indicated species.

C. glabrata [1] = assay: as above; format: cell-based
Description: as §1, §2, §3

C. parapsilosis = assay: as above; format: cell-based
Description: as §1, §2, §3

C. lusitaniae = assay: as above; format: cell-based
Description: as §1, §2, §3

C. krusei [2] = assay: as above; format: cell-based
Description: as §1, §2, §3

C. dubliniensis = assay: as above; format: cell-based
Description: as §1, §2, §3

C. tropicalis = assay: as above; format: cell-based
Description: as §1, §2, §3

H. capsulatum = assay: microbe, parasite or virus in culture; format: cell-based
[3] = Aqueous solubility (equilibrated 25° C., 24 hours, HPLC); format: physicochemical; details: water, thermodynamic from solid
Description: The potassium salt was furthermore submitted to a solubility determination. Aqueous solubility was determined by suspending sufficient compound in water to give a maximum final concentration of ≧100 mg.m1-1 of the parent free-form of the compound. The suspension was equilibrated at 25° C. for 24 hours then the pH was measured. The suspension was then filtered through a glass fibre C filter into a 96 well plate. The filtrate was then diluted by a factor of 101. Quantification was by HPLC with reference to a standard solution of approximately 0.1 mg.ml-1. in DMSO. Different volumes of the standard, diluted and undiluted sample solutions were injected. The solubility was calculated using the peak areas determined by integration of the peak found at the same retention time as the principal peak in the standard injection. Analysis was performed on an Agilent HP1100 series system equipped with a diode array detector and using ChemStation software vB.02.01-SR1.

OLE1 = OLE1 expression by real time PCR; format: cell-based, C. albicans; details: 250 ng/ml; 120 min; vs drug free control
Description: Numbers indicate time intervals in minutes. Expression values are normalized to TUB1 and given as multiples of OLE1 expression at 10 minutes in ethanol.
Similarly, the expression of OLE1 in C. albicans was investigated in response to compound IV″. In the presence of 250 ng/ml Compound IV, OLE1 transcript levels were increased 4-fold after 120 min incubation time compared to the drug free control. […] Expression values are normalised to TUB1 and given as multiples of OLE1 expression at 10 minutes in ethanol.

[4] = tested on: Enterobacter faecalis 29212; assay: In vitro Antibacterial Activity; format: cell-based
C. glabrata [5] = assay: In vitro antifungal activity vs. yeasts (MIC/MFC); format: cell-based; details: Nakaseomyces glabratus, C. glabrata (n = 1)
C. albicans spores = assay: Effect on the germination of C. albicans (MTT); format: cell-based; details: drug added after 3 hours
ergosterol biosynthesis = assay: 13C-acetate incorporation into ergosterol; format: cell-based, Candida albicans; details: drug at about its MIC, added after the first 15 minutes
Microsporum canis = assay: In vitro antifungal activity vs. dermatophytes (MIC/MFC); format: cell-based; details: Microsporum canis (n = 15)
(1,3)β-Glucan Synthase = assay: Inhibition of fungal cell wall synthesis enzymes; format: biochemical
From the text: Specific inhibitors of each enzyme served as positive controls (Cilofungin, a β-glucan synthase inhibitor and nikkomycin Z, a chitin synthase inhibitor).

T. rubrum = assay: In vitro antifungal activity vs. dermatophytes (MIC/MFC); format: cell-based; details: T. rubrum (n = 15)
C. krusei [6] = assay: In vitro antifungal activity vs. yeasts (MIC/MFC); format: cell-based; details: Pichia kudriavzevii, C. krusei (n = 1)
Candida albicans [7] = assay: Mouse vaginal infection, topical dosing; format: in vivo; details: mice; topically 0.01% daily for five days
Description: The efficacy of compound III″ in vaginal infections of small mammals has been shown. Mice were vaginally infected with Candida albicans. Compound III″ was administered topically at 0.01% daily for five days. Fungal burden decreased 86% compared to the untreated control (see FIG. 14 showing vaginal fungal burden as determined by colony forming units (CFU) from vaginal lavage fluid).

Candida albicans [8] = assay: In vitro fungicidal activity vs. Candida albicans
[9] = tested on: Trichophyton mentagrophytes; assay: Guinea pig skin infection, topical dosing; format: in vivo; details: guinea pigs
Description: The efficacy of compound III″ in skin infections of small mammals was shown in guinea pigs infected with Trichophyton mentagrophytes on abrased skin. Compound III″ was administered topically at 0.1% or 1% once daily for seven days. Fungal burden decreased by 82% and 98% respectively, compared to the untreated control (see FIG. 13 showing topical fungal burden as determined by culture positive hair removed from the site of infection).

Question: Which “MIC90/MIC range 48 h” value (C. albicans; C. albicans (n = 20), MIC90, 48 h) does the source give for O=C([O-])CCCCCCC/C=C\C#CC#Cc1ccco1.[K+] [Compound IV″, potassium (Z)-14-(furan-2-yl)tetradeca-9-en-11,13-diynoate] here?
Answer: The value was 2.5 ng/mL.

Question: What about the MIC90 (C. albicans; Candida albicans, 24 h) of the same compound?
Answer: The MIC90 was 2.5 ng/mL.

Question: What about the “MIC90/MIC range 48 h” value (C. glabrata [1]; C. glabrata (n = 25), MIC90, 48 h) of the same compound?
Answer: The value was 20 ng/mL.

Question: What about the MIC90 (C. glabrata [1]; Nakaseomyces glabratus, 24 h) of the same compound?
Answer: The MIC90 was 20 ng/mL.

Question: And the “MIC90/MIC range 48 h” value (C. parapsilosis; C. parapsilosis (n = 37), MIC90, 48 h)?
Answer: The value was 1024 ng/mL.

Question: What about the MIC90 (C. parapsilosis; Lodderomyces parapsilosis, 24 h) of the same compound?
Answer: Its MIC90 is 1020 ng/mL.

Question: What about the MIC50 (C. parapsilosis; Lodderomyces parapsilosis, 24 h, read-out: calculated MIC50) of the same compound?
Answer: Its MIC50 is 128 ng/mL.

Question: What about the “MIC90/MIC range 48 h” value (C. lusitaniae; C. lusitaniae (n = 24), MIC90, 48 h) of the same compound?
Answer: Its value is 128 ng/mL.

Question: What about the MIC90 (C. lusitaniae; Clavispora lusitaniae, 24 h) of the same compound?
Answer: Its MIC90 is 128 ng/mL.

Question: And the “MIC90/MIC range 48 h” value (C. krusei [2]; C. krusei (n = 27), MIC90, 48 h)?
Answer: The value was 20 ng/mL.

Question: And the MIC90 (C. krusei [2]; Pichia kudriavzevii, 24 h)?
Answer: Its MIC90 is 20 ng/mL.

Question: And the “MIC90/MIC range 48 h” value (C. dubliniensis; C. dubliniensis (n = 25), MIC90, 48 h)?
Answer: Its value is 2.5 ng/mL.

Question: And the MIC90 (C. dubliniensis; Candida dubliniensis, 24 h)?
Answer: Its MIC90 is 2.5 ng/mL.

Question: What about the “MIC90/MIC range 48 h” value (C. tropicalis; C. tropicalis (n = 35), MIC90, 48 h) of the same compound?
Answer: The value was 5 ng/mL.

Question: What about the MIC90 (C. tropicalis; Candida tropicalis, 24 h) of the same compound?
Answer: Its MIC90 is 5 ng/mL.

Question: And the “MIC90/MIC range 48 h” value (H. capsulatum; H. capsulatum (n = 20), MIC90, 48 h)?
Answer: The value was 30 ng/mL.

Question: What about the MIC90 (H. capsulatum; Histoplasma capsulatum, 120 h) of the same compound?
Answer: The MIC90 was 30 ng/mL.

Question: And the solubility at 24 h [3]?
Answer: Its solubility at 24 h is greater than 96.5 mg/mL.

Question: And the “increase of OLE1 transcript levels” value (OLE1)?
Answer: Its value is 4 fold.

Question: For O=C(O)CCCCCCC/C=C\C#CC#Cc1ccco1 [Compound III″], which MIC90 [4] is on record?
Answer: The MIC90 was 12500 ng/mL (≈ 44000 nM).

Question: And the MFC (C. glabrata [5])?
Answer: Its MFC is 500 ng/mL (≈ 1760 nM).

Question: What about the MIC (C. glabrata [5]; 90% inhibition endpoint) of the same compound?
Answer: The MIC was 8 ng/mL (≈ 28.1 nM).

Question: What about the “growth of spores germinated in the absence of drug” value (C. albicans spores) of the same compound?
Answer: The value was “effectively inhibited the subsequent growth of spores”.

Question: What about the “net biosynthesis of ergosterol (13C-acetate incorporation)” value (ergosterol biosynthesis) of the same compound?
Answer: Its value is “did not significantly inhibit the net biosynthesis of ergosterol”.

Question: And the MIC (Microsporum canis; 96 h, 35° C., 4 days)?
Answer: Its MIC is less than 0.06 ng/mL.

Question: And the MFC (Microsporum canis)?
Answer: Its MFC is 0.5 ng/mL (≈ 1.76 nM).

Question: And the “MIC90/MIC range 48 h” value (Microsporum canis; MIC90, 48 h)?
Answer: The value was less than 0.06 ng/mL.

Question: What about the “% Inhibition, (1,3)β-Glucan Synthase” value ((1,3)β-Glucan Synthase; 10 μg/ml) of the same compound?
Answer: Its value is 0%.

Question: And the “% Inhibition, (1,3)β-Glucan Synthase” value ((1,3)β-Glucan Synthase; 100 μg/ml)?
Answer: The value was 73%.

Question: And the “% Inhibition, (1,3)β-Glucan Synthase” value ((1,3)β-Glucan Synthase; 400 μg/ml)?
Answer: Its value is 90%.

Question: What about the “MIC90/MIC range 48 h” value (T. rubrum; MIC90, 48 h) of the same compound?
Answer: The value was less than 0.06 ng/mL.

Question: And the MIC (T. rubrum; Trichophyton rubrum, 96 h, 35° C., 4 days)?
Answer: The MIC was less than 0.06 ng/mL.

Question: What about the MFC (T. rubrum; Trichophyton rubrum) of the same compound?
Answer: Its MFC is less than 0.06 ng/mL.

Question: What about the MFC (C. krusei [6]) of the same compound?
Answer: The MFC was 1 ng/mL (≈ 3.52 nM).

Question: What about the MIC (C. krusei [6]; 90% inhibition endpoint) of the same compound?
Answer: The MIC was 0.5 ng/mL (≈ 1.76 nM).

Question: What about the “decrease of vaginal fungal burden (CFU, lavage fluid)” value (Candida albicans [7]) of the same compound?
Answer: Its value is 86%.

Question: And the “Fungicidal Concentration” value (Candida albicans [8]; Candida albicans)?
Answer: Its value is 0.4 ng/mL.

Question: And the MIC90 (Candida albicans [8]; Candida albicans, 24 h, read-out: MIC90 24 h)?
Answer: Its MIC90 is 0.4 ng/mL (≈ 1.41 nM).

Question: What about the MIC90 (Candida albicans [8]; Candida albicans, 48 h, read-out: MIC90 48 h) of the same compound?
Answer: The MIC90 was 0.4 ng/mL (≈ 1.41 nM).

Question: What about the remaining organisms (Candida albicans [8]; growth-negative samples after 24 hr incubation, subcultured) of the same compound?
Answer: The remaining organisms was less than 5 cfu/ml.

Question: What about the “decrease of fungal burden (culture positive hair)” value ([9]; topically 0.1% once daily for seven days) of the same compound?
Answer: The value was 82%.

Question: And the “decrease of fungal burden (culture positive hair)” value ([9]; topically 1% once daily for seven days)?
Answer: Its value is 98%.
